Read-outs that look alike come from different tables or passages of the source.
Legend:
[1] = Acute toxicity, oral, 14 days observation, Litchfield-Wilcoxon method; settings: mouse, in vivo, 5-week-old ICR male mice
Procedure: The compounds of the present invention prepared in Examples 2 and 54 were each orally administered to 5-week-old ICR male mice (8 mice in each group) to check the mice for the symptoms, change of weight and mortality by observing the mice for 14 consecutive days after the administration of the compounds. The LD50 value was determined from the mortality by the Litchfield-Wilcoxon method with the results shown below in Table 3.

Sarcoma-180 = assay: Antitumor test: Sarcoma-180 subcutaneously transplanted in ICR mice, oral once a day for 7 days, tumor weight on 10th day (50% tumor inhibition dose); assay type: in vivo; settings: Mus musculus, 240 h, once a day for 7 consecutive days, read-out: ED50 (50% tumor inhibition dose, T/C is 0.5)
Procedure: (a) Sarcoma-180 subcultured in an ascites of ICR mice was diluted with a physiological saline solution and subcutaneously transplated into the backs of ICR mice in an amount of 2×10^7 each. Twenty-four hours after the transplantation, a test compound suspended in a 5% solution of gum arabic was orally administered to each of mice once a day for 7 consecutive days.
The solid tumor was extirpated from under the dorsal skin of mice on the 10th day after the transplantation to measure the weight of the tumor. There was determined the ratio (T/C) of the weight of tumor (T) cut out from the group of mice treated with the test compound to the weight of tumor (C) from the group of mice not treated therewith. The 50% tumor inhibition dose (ED50 value) in which T/C is 0.5 was determined from the dose-response curve of dosage and the ratio (T/C).

[2] = Table 1, Sarcoma-180 s.c. in ICR mice, tumor weight on 10th day
[3] = Table 2, same manner as in (a): Sarcoma-180 s.c. in ICR mice

| Structure (SMILES) | LD50 at 336 h [1] | ED50 (Sarcoma-180; [2]) | ED50 (Sarcoma-180; [3]) |
| --- | --- | --- | --- |
| O=c1[nH]c(=O)n([C@H]2C[C@H](OCc3ccccc3)[C@@H](CO)O2)cc1F [Example 2, 3'-O-benzyl-2'-deoxy-5-fluorouridine] | > 1000 mg/kg | – | – |
| O=c1[nH]c(=O)n([C@H]2C[C@H](OCc3ccccc3F)[C@@H](CO)O2)cc1F [Example 2] | – | 8 mg/kg | – |
| CC(=O)OC[C@H]1O[C@@H](n2cc(F)c(=O)[nH]c2=O)C[C@@H]1OCc1ccccc1 [Example 54, 3'-O-benzyl-5'-O-acetyl-2'-deoxy-5-fluorouridine] | > 1000 mg/kg | 15 mg/kg | – |
| CC(=O)OC[C@H]1O[C@@H](n2cc(F)c(=O)n(C(=O)c3cccc(C(=O)Oc4cc(OC(=O)c5ccccc5)c(Cl)cn4)c3)c2=O)C[C@@H]1OC(C)=O [Example 197, 3-[3-(4-benzoyloxy-5-chloro-2-pyridyloxycarbonyl)benzoyl]-2'-deoxy-3',5'-di-O-acetyl-5-fluorouridine] | – | – | 7 mg/kg |
| CC(=O)Oc1cc(OC(=O)c2cccc(C(=O)n3c(=O)c(F)cn([C@@H]4O[C@H](C)[C@@H](OC(C)=O)[C@H]4OC(C)=O)c3=O)c2)c(Cl)cn1 [Example 201, 3-[3-(2-acetoxy-5-chloro-4-pyridyloxycarbonyl)benzoyl]-5'-deoxy-2',3'-di-O-acetyl-5-fluorouridine] | – | – | 12 mg/kg |
| CC(=O)OC[C@H]1O[C@@H](n2cc(F)c(=O)n(C(=O)c3cccc(C(=O)Oc4cc(OC(=O)c5ccccc5)c(Cl)cn4)c3)c2=O)[C@H](OC(C)=O)[C@@H]1OC(C)=O [Example 202, 3-[3-(4-benzoyloxy-5-chloro-2-pyridyloxycarbonyl)benzoyl]-5-fluoro-2',3',5'-tri-O-acetyluridine] | – | – | 22 mg/kg |
| O=C(Oc1cc(OC(=O)c2ccccc2)c(Cl)cn1)c1cccc(C(=O)n2c(=O)c(F)cn([C@H]3C[C@H](OCc4ccccc4)[C@@H](COCc4ccccc4)O3)c2=O)c1 [Example 208, 3-[3-(4-benzoyloxy-5-chloro-2-pyridyloxycarbonyl)benzoyl]-2'-deoxy-3',5'-di-O-benzyl-5-fluorouridine] | – | – | 5 mg/kg |
| CCOCn1cc(F)c(=O)n(C(=O)c2cccc(C(=O)Oc3nc(OC(=O)c4ccccc4)ccc3C#N)c2)c1=O [Example 227, 3-[3-(3-cyano-6-benzoyloxy-2-pyridyloxycarbonyl)benzoyl]-1-ethoxymethyl-5-fluorouracil] | – | – | 5 mg/kg |
| O=c1[nH]c(=O)n([C@H]2C[C@H](OCc3ccccc3)[C@@H](CO)O2)cc1F [drawing 480] | – | 8 mg/kg | – |

From US4864021A, “5-fluorouracil derivatives” (Otsuka Pharmaceutical Co., Ltd., priority 1984, dated 1989)
